Experimental data reported in patent publication US10034886B2, “GLP-1 receptor modulators” (Celgene International II SÀRL, priority 2014, dated 2018).
Read-outs that look alike come from different tables or passages of the source.

Biological target: T1, GLP-1R (Homo sapiens, UniProt P43220)
T1 construct: host or cells: GLP-1R CRE-bla CHO-K1 cells
Assay: EC20 GLP-1(9-36) PAM cAMP assay: dose response of compound in the presence of fixed concentration of GLP-1(9-36)
Assay type: cell-based
Details: GLP-1R CRE-bla CHO-K1 cells, read-out: EC20 GLP-1(9-36) PAM EC50
How it was run: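 Positive allosteric modulation read as cAMP accumulation: compound titrations (12 points) combined with an EC20 level of GLP-1(9-36) on CHO-K1 GLP-1R CRE-bla cells, IBMX present, 30 min, 37 °C, pH 7.4 buffer. Luminescence converted to cAMP via standards; non-linear fit gave EC50 and Emax.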

[1] = dose response of compound in presence of fixed concentration of GLP-1(9-36)
[2] = compound dose response with fixed concentration of GLP-1(9-36)

T1 sequence (P43220 24-463): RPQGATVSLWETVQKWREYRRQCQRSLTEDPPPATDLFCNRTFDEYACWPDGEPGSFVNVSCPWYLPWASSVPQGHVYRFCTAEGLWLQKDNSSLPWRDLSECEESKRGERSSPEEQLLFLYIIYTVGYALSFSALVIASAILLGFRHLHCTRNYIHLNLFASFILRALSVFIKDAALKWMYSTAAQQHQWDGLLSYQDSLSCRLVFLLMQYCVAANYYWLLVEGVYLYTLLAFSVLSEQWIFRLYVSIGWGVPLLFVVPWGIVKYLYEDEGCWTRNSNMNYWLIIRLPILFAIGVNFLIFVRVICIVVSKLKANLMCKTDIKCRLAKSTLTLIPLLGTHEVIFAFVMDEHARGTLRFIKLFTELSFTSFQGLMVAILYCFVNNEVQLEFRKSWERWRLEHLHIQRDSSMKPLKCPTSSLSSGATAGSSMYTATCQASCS
T1 sequence (P01275 100-127 partner limits assumed): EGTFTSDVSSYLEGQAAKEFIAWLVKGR

| Structure (SMILES) | EC50 [1] | EC50 [2] |
| --- | --- | --- |
| CC[C@H]1CC[C@H](c2ccc(-c3cnc(-c4ccc(C[C@H](NC(=O)c5ccc(OC(C)C)cc5)C(=O)N5CC(C(=O)O)C5)cc4)nc3)cc2)CC1 [Compound 1160] | < 800 nM | – |
| CCCC[C@H]1CC[C@H](c2ccc(-c3cnc(-c4ccc(C[C@H](NC(=O)c5ccc(C(C)(C)C)s5)C(=O)N[C@H](C)C(=O)O)cc4)nc3)cc2)CC1 [Compound 1317] | – | < 800 nM |
| CC(C)(C)c1ccc(-c2cnc(-c3ccc(C[C@H](NC(=O)c4ccc(C(C)(C)C)s4)C(=O)N[C@H]4CCC[C@H]4C(=O)O)cc3)nc2)cc1 [Compound 382] | 800 to 2500 nM | – |
| CCCCCCCOc1ccc(-c2cnc(-c3ccc(C[C@H](NC(=O)c4ccc(C(C)(C)C)s4)C(=O)NCC(C)O)cc3)nc2)cc1 (stereo partly shown) [Compound 388] | 2500 to 5000 nM | – |
| CCCCCCCOc1ccc(-c2cnc(-c3ccc(C[C@H](NC(=O)c4ccc(C(C)(C)C)s4)C(=O)NC(C(=O)O)C(O)c4ncccn4)cc3)nc2)cc1 (stereo partly shown) [Compound 913] | < 800 nM | – |
| CCCC1CCC(C2CCN(c3cnc(-c4ccc(C[C@H](NC(=O)c5ccc(C(C)(C)C)s5)C(=O)N5CC(C(=O)O)C5)cc4)nc3)C(=O)C2)CC1 (stereo partly shown) [Compound 1496] | – | 800 to 2500 nM |
| CC(C)(C)c1ccc(C(=O)N[C@@H](Cc2ccc(-c3ncc(-c4ccc(OC5CC5)cc4)cn3)cc2)C(=O)NC(C(=O)O)C(O)c2ccccc2)s1 (stereo partly shown) [Compound 930] | 5000 to 10000 nM | – |
| CCCCCCCOc1ccc(-c2cnc(-c3ccc(C[C@H](NC(=O)c4cc(C)cs4)C(=O)O)cc3)nc2)cc1 [Compound 470] | < 800 nM | – |
| CCc1ccc(/C(C)=C/c2cnc(-c3ccc(C[C@H](NC(=O)c4ccc(C(C)(C)C)s4)C(=O)N[C@H](C)C(=O)O)cc3)nc2)cc1 [Compound 1266] | – | 2500 to 5000 nM |
| CCCCCCCOc1ccc(-c2cnc(-c3ccc(C[C@H](NC(=O)c4ccc(C(C)(C)C)cc4)C(=O)N[C@H](CCCCN)C(=O)O)cc3)nc2)cc1 [Compound 466] | 800 to 2500 nM | – |
| CCCCCCCOc1ccc(-c2nnc(-c3ccc(C[C@@H](NC(=O)c4ccc(C(C)(C)C)cc4)C(=O)N4CC(C(=O)O)C4)cc3F)s2)cc1 [Compound 1553] | – | 800 to 2500 nM |
| CCCCCCCOc1ccc(-c2cnc(-c3ccc(C[C@H](NC(=O)c4ccc(C5CC5)cc4)C(=O)N4CC[C@H](C(=O)O)C4)cc3)nc2)cc1 [Compound 857] | 5000 to 10000 nM | – |
| CCCCCCCOc1ccc(-c2cnc(-c3ccc(C[C@H](NC(=O)c4ccc(C(C)(C)C)c(OC)c4)C(=O)N4CC(C(=O)O)C4)cc3)nc2)cc1 [Compound 1120] | 2500 to 5000 nM | – |
| CCCCC(=O)c1ccc(-c2cnc(-c3ccc(C[C@H](NC(=O)c4ccc(C(C)(C)C)s4)C(=O)N[C@H](C)C(=O)O)cc3)nc2)c(C)c1 [Compound 1014] | 5000 to 10000 nM | – |
| CC[C@H]1CC[C@H](c2ccc(-c3cnc(-c4ccc(C[C@H](NC(=O)c5ccc(C(F)(F)F)cc5)C(=O)O)cc4)nc3)cc2)CC1 [Compound 1374] | – | 800 to 2500 nM |
| CC(C)(C)c1ccc(C(=O)NC(Cc2ccc(-c3ncc(N4CCC(c5cccc(F)c5)CC4)cn3)cc2)C(=O)N2CC(C(=O)O)C2)s1 (stereo not shown) [Compound 1484] | – | 800 to 2500 nM |
| CCCc1ccc(-c2ccc(-c3cnc(-c4ccc(C[C@H](NC(=O)c5ccc(C(C)C)cc5)C(=O)N5CC(C(=O)O)C5)cc4)nc3)c(F)c2)cc1 [Compound 1408] | – | < 800 nM |
| CC(C)(C)c1ccc(C(=O)N[C@@H](Cc2ccc(-c3ncc(-c4ccc(-c5ccc(C(F)(F)F)cc5)cc4F)cn3)cc2)C(=O)N2CC(C(=O)O)C2)s1 [Compound 1218] | – | < 800 nM |
| CCC[C@H]1CC[C@H](C2CCN(c3cnc(-c4ccc(C[C@H](NC(=O)c5ccc(C(C)(C)C)s5)C(=O)O)cc4)nc3)CC2)CC1 [Compound 1439, (S)-2-(5-(tert-butyl)thiophene-2-carboxamido)-3-(4-(5-(4-((1s,4r)-4-propylcyclohexyl)piperidin-1-yl)pyrimidin-2-yl)phenyl)propanoic acid] | – | < 800 nM |
| CCC[C@H]1CC[C@H](C2CCN(c3cnc(-c4ccc(C[C@H](NC(=O)c5ccc(C(C)(C)C#N)s5)C(=O)N5CC(C(=O)O)C5)cc4)nc3)CC2)CC1 [Compound 1513] | – | < 800 nM |
| CC(C)CCOc1ccc(-c2ccc(-c3cnc(-c4ccc(C[C@H](NC(=O)c5ccc(C(C)(C)C)s5)C(=O)N[C@H](C)C(=O)O)cc4)nc3)cc2)cc1 [Compound 1294] | – | 800 to 2500 nM |
| CC[C@H]1CC[C@H](c2ccc(-c3cnc(-c4ccc(C[C@H](NC(=O)c5ccc(C(C)(C)C)cc5)C(=O)N5CC(C(=O)O)C5)cc4)nc3)cc2)CC1 [Compound 1170] | < 800 nM | – |
| CCCCCCCOc1ccc(-c2cnc(-c3ccc(C[C@H](NC(=O)c4ccc(C(C)(C)C)s4)C(=O)N4CC(C)C(C(=O)O)C4)cc3)nc2)cc1 (stereo partly shown) [Compound 631] | 800 to 2500 nM | – |
| CCCCCCCOc1ccc(-c2cnc(-c3ccc(C[C@H](NC(=O)c4ccc(C(C)(C)C)s4)C(=O)NCCCN(C)C)cc3)nc2)cc1 [Compound 962] | 800 to 2500 nM | – |
| CCCCCCCOc1ccc(-c2cnc(-c3ccc(C[C@H](NC(=O)c4cnn(C(C)(C)C)c4C)C(=O)N4CCC[C@H]4C(=O)O)cc3)nc2)cc1 [Compound 1079] | 2500 to 5000 nM | – |

| Structure (SMILES) | EC50 [1] | EC50 [2] |
| --- | --- | --- |
| CCCCCCCOc1ccc(-c2nnc(-c3ccc(CC(NC(=O)c4ccc(C(C)(C)C)cc4)C(=O)O)cc3F)s2)cc1 (stereo in doubt) [Compound 1552, (S)-2-(4-(tert-butyl)benzamido)-3-(3-fluoro-4-(5-(4-(heptyloxy)phenyl)-1,3,4-thiadiazol-2-yl)phenyl)propanoic acid] | – | 800 to 2500 nM |
| CCCCOc1ccc(-c2cnc(-c3ccc(C[C@H](NC(=O)c4ccc(C(C)(C)C)s4)C(=O)N4CC(C(=O)O)C4)cc3)nc2)cc1 [Compound 786] | 800 to 2500 nM | – |
| CCCCCCCOc1ccc(-c2cnc(-c3ccc(C[C@H](NC(=O)c4ccc(C(C)(C)C)s4)C(=O)NCCCN4CCOCC4)cc3)nc2)cc1 [Compound 964] | 2500 to 5000 nM | – |
| CCCc1ccc(-c2ccc(-c3cnc(-c4ccc(C[C@H](NC(=O)c5ccc(C(C)C)s5)C(=O)N5CC(C(=O)O)C5)cc4)nc3)c(F)c2)cc1 [Compound 1398] | – | < 800 nM |
| CCCCCCCOc1ccc(-c2cnc(-c3ccc(C[C@H](NC(=O)c4ccc(C(C)(C)C)cc4)C(=O)N4CC[C@H](N)[C@@H](C(=O)O)C4)cc3)nc2)cc1 [Compound 582] | 800 to 2500 nM | – |
| C=C(N[C@H](Cc1ccccc1)C(=O)O)[C@H](Cc1ccc(-c2ncc(N3CCC([C@H]4CC[C@H](CCC)CC4)CC3)cn2)cc1)NC(=O)c1ccc(C(C)(C)C)s1 [Compound 1464] | – | < 800 nM |
| CCCc1ccc(-c2ccc(-c3cnc(-c4ccc(C[C@H](NC(=O)c5ccc(C(C)(C)C)s5)C(=O)O)cc4)nc3)cc2)cc1 [Compound 1393] | – | 800 to 2500 nM |
| COc1ccc(C2CCN(c3cnc(-c4ccc(CC(NC(=O)c5ccc(C(C)(C)C)s5)C(=O)N5CC(C(=O)O)C5)cc4)nc3)CC2)cc1 (stereo not shown) [Compound 1489] | – | < 800 nM |
| CCC[C@H]1CC[C@H](C2CCN(c3cnc(-c4ccc(C[C@H](NC(=O)c5ccc(C(C)(C)C)s5)C(=O)NC(CN(C)C)C(=O)O)cc4)nc3)CC2)CC1 (stereo partly shown) [Compound 1459] | – | < 800 nM |
| CCCCCCCOc1ccc(-c2cnc(-c3ccc(C[C@H](NC(=O)c4ccc(C(C)(C)C)s4)C(=O)N[C@@H](CC(=O)N(C)CCN(C)C)C(=O)O)cc3)nc2)cc1 [Compound 520] | 800 to 2500 nM | – |
| CCCC(C)COc1ccc(-c2cnc(-c3ccc(C[C@H](NC(=O)c4ccc(C(C)(C)C)cc4)C(=O)NCCC(=O)O)cc3)nc2)cc1 (stereo partly shown) [Compound 707] | 5000 to 10000 nM | – |
| C[C@@H](NC(=O)[C@H](Cc1ccc(-c2ncc(-c3ccc(-c4cccc(F)c4)cc3)cn2)cc1)NC(=O)c1ccc(C(C)(C)C)s1)C(=O)O [Compound 1134] | 800 to 2500 nM | – |
| CCCCCCCOc1ccc(-c2cnc(-c3ccc(C[C@H](NC(=O)c4ccc(C(C)(C)C)cc4)C(=O)N4CC=CC4C(=O)O)cc3)nc2)cc1 (stereo partly shown) [Compound 563] | < 800 nM | – |
| CCCCCCCOc1ccc(-c2cnc(-c3ccc(C[C@H](NC(=O)c4ccc(C(C)(C)CC)cc4)C(=O)N4CC(C(=O)O)C4)cc3)nc2)cc1 [Compound 1121] | 800 to 2500 nM | – |
| CCCCCCCOc1ccc(-c2cnc(-c3ccc(C[C@H](NC(=O)c4ccc(C(C)(C)C)s4)C(=O)N[C@@H](Cn4cccn4)C(=O)O)cc3)nc2)cc1 [Compound 594] | < 800 nM | – |
| CCCCCCCOc1ccc(-c2cnc(-c3ccc(C(NC(=O)c4ccc(C(C)(C)C)s4)C(=O)O)cc3)nc2)cc1 (stereo not shown) [Compound 289, 2-(5-(tert-butyl)thiophene-2-carboxamido)-2-(4-(5-(4-(heptyloxy)phenyl)pyrimidin-2-yl)phenyl)acetic acid] | 2500 to 5000 nM | – |
| CCCCCCCOc1ccc(-c2cnc(-c3ccc(C[C@H](NC(=O)c4cnn(C(C)(C)C)c4C)C(=O)N4CC[C@H](C(=O)O)C4)cc3)nc2)cc1 [Compound 861] | 2500 to 5000 nM | – |
| CCCCCCCOc1ccc(-c2cnc(-c3ccc(C[C@H](NC(=O)c4ccc(OCCC)cc4)C(=O)N[C@H](C)C(=O)O)cc3)nc2)cc1 [Compound 982] | 5000 to 10000 nM | – |
| CCCCCCCOc1ccc(-c2cnc(-c3ccc(C[C@H](NC(=O)c4ccc(C(C)(C)C)s4)C(=O)NS(=O)(=O)CCOC)cc3)nc2)cc1 [Compound 435] | 800 to 2500 nM | – |
| CCCCCCCOc1ccc(-c2cnc(-c3ccc(CC(NC(=O)c4ccc(C(C)(C)C)s4)C(=O)N[C@H](C(=O)O)[C@@H](C)O)cc3)nc2)cc1 (stereo partly shown) [Compound 424] | < 800 nM | – |
| CCOc1ccc(-c2cnc(-c3ccc(C[C@H](NC(=O)c4ccc(C(C)(C)C)s4)C(=O)O)cc3)nc2)cc1 [Compound 1349] | – | 5000 to 10000 nM |
| CCCCCCCOc1ccc(-c2cnc(-c3ccc(C[C@H](NC(=O)c4ccc(C(C)(C)C)cc4)C(=O)NC(CC(=O)O)c4cccc(O)c4)cc3)nc2)cc1 (stereo partly shown) [Compound 538] | 5000 to 10000 nM | – |
| CCc1ccc(C(=O)N[C@@H](Cc2ccc(-c3ncc(-c4ccc([C@H]5CC[C@H](CC)CC5)cc4)cn3)cc2)C(=O)O)cn1 [Compound 1390] | – | 5000 to 10000 nM |
| CCC[C@H]1CC[C@H](C2CCN(c3cnc(-c4ccc(C[C@H](NC(=O)c5ccc(C(C)(C)C)s5)C(=O)N5CC[C@H](C(=O)O)C5)cc4)nc3)CC2)CC1 [Compound 1416] | – | < 800 nM |
